According to US20150133434A1, “Compositions and Methods for Reactivating Latent Immunodeficiency Virus” (priority 2012, published 2015):
Entries after “also recorded” stand apart in the source; their conditions may differ.

Tests used:
[1] = test system: latent DHIV-GFP, X4 virus in nonpolarized T helper cells; assay: Primary T-cell model of latency, ex vivo differentiated nonpolarized CD4+ T cells; assay type: cell-based, HIV-1; details: 96 h after compound addition; minor effect only at highest doses
[2] = test system: HIV LTR-luciferase reporter (Tat transactivation); assay: Tat transactivation of the HIV promoter, LTR-luciferase in Jurkat 1G5-Tat cells; assay type: cell-based; details: 1G5-Tat clonal cell lines
Method: Compounds that specifically bind to the bromodomain of PCAF in vitro were tested in an in vivo assay that measures the transactivation of the HIV promoter by Tat. The Jurkat 1G5 cells contain a stably integrated and silent HIV LTR-luciferase reporter construct. These cells were infected with an HIV-based retroviral vector expressing a 101-amino acids Tat (Tat2ex), generating the 1G5-Tat cells. Introduction of Tat protein activates HIV transcription and produces a stable increase in luciferase activity. Clonal cell lines were derived from the original population and have characterized them in terms of luciferase expression and response to Tat inhibitors. Luciferase expression is stable over time in each clone and is inhibited by more than 80% in response to DRB, a known inhibitor of CDK9 kinase activity and Tat transactivation.
Compounds were tested by incubating them at various concentrations ranging from 1.25 to 40 μM on either 1G5 cells, to test for effects on the HIV LTR, or on 1G5-Tat cells to test for effects on Tat-induced HIV transcription. After 24 hr, cells were harvested and processed for luciferase activity measurement.

[3] = test system: latent LTR-Tat-IRES-GFP construct in J-Lat A2 cells; assay: J-Lat A2 cells (LTR-Tat-IRES-GFP), flow cytometry of GFP; assay type: cell-based, HIV-1; details: 18 h
Method: (§1) HEK293T and Jurkat cells were obtained from the American Type Culture Collection. J-Lat (clones A2 and A72) cell lines were described. HEK293T cells were cultured in DMEM supplemented with 10% FBS, 1% L-glutamine and 1% penicillin-streptomycin (Life Technologies). Jurkat and J-Lat cells were cultured in RPMI supplemented with 10% FBS, 1% L-glutamine, and 1% penicillin-streptomycin. TNFα (Sigma-Aldrich) was used at concentrations of 0.25 or 1 ng/ml. Human αCD3 and αCD28 (BD Biosciences) were used at concentrations of 3 and 1 μg/ml, respectively. Prostratin (Sigma) was used at a suboptimal concentration of 0.5 μM, and SAHA (NCI Chemical Carcinogen Repository, Midwest Research Institute) was used at 2.5 μM.
(§2) To determine if BET inhibition specifically activates Tat-dependent transcription, a J-Lat cell line was utilized that harbored a latent lentiviral construct expressing Tat with GFP from the HIV LTR (clone A2; LTR-Tat-IRES-GFP). […] Stimulation with JQ1 yielded up to ninefold more GFP-expressing cells than control-treated cells, and a 22-fold increase was observed when cells were co-treated with JQ1 and low doses of TNFα (FIG. 21A). […] Here, an up to 22-fold increase in GFP^+ cells resulted from JQ1 treatment alone and a 45-fold increase when TNFα was added with JQ1 (FIG. 21B). Both cell lines were also treated with prostratin and SAHA (FIG. 27).
(§3) Two latent J-Lat cell lines A2 (containing a LTR-Tat-IRES-GFP construct) or A72 (containing a LTR-GFP construct) were treated with JQ1 or (R)-JQ1 in combination with TNFα or control at the indicated concentrations for 18 h, followed by flow cytometry analysis. […] Data represent average (±SD) of three independent experiments. All treatments in (A) and (B) on the X axis are in μM.

[4] = test system: latent LTR-GFP construct in J-Lat A72 cells; assay: J-Lat A72 cells (LTR-GFP lacking Tat), flow cytometry of GFP; assay type: cell-based, HIV-1; details: 18 h
Method: as §1, §2, §3

[5] = test system: latent HIV (clone R7/E-/GFP) in Jurkat T cells; assay: Reactivation of latent HIV in polyclonal Jurkat T cells (clone R7/E-/GFP), flow cytometry of GFP; assay type: cell-based, HIV-1; details: compound alone, increasing amounts
Method: A polyclonal population of Jurkat T cells containing latent HIV (clone R7/E-/GFP) was treated with increasing amounts of JQ1. This viral clone contains a frameshift mutation in the viral Env gene to prevent viral spread and expresses GFP in the Nef open reading frame, which allows separation of actively infected GFP^+ from GFP^− cells by cell sorting. GFP^− cells, which are mostly uninfected but contain a small fraction of latently infected cells with silenced HIV transcription, were treated with JQ1. Activation of transcription was measured by flow cytometry of GFP. […] Stimulation of cells with JQ1 produced up to fivefold more GFP-expressing cells than control-treated cells.
HIV clones R7/E-/GFP and NL4-3/E-/GFP-IRES-nef were derived from pR7-GFP and pNLENG1-EGFP by mutating the Env gene by inserting an early stop codon in the NdeI site. […]. Jurkat cells were spininfected with 25 ng of p24 per 10^6 cells, and GFP^− cells where collected in two rounds of cell sorting 5 and 15 days after infection. The expanded population of GFP^− cells, composed of uninfected and latently infected cells, was seeded in 96-well plates and treated with the indicated concentration of drugs in duplicates. The percentage of GFP^+ cells was detected after 24 h at the MACSQuant VYB FACS analyzer. Data are expressed as the mean percentage of GFP^+ cells, subtracting the average percentage of spontaneous GFP-reactivation in the untreated samples. (A) Jurkat cells containing latent R7/E-/GFP virus were treated with JQ1 or (R)-JQ1 in combination with Prostratin (0.5 μM), SAHA (2.5 μM), TNFα (1 ng/μl), or control at the indicated concentrations for 18 h, followed by flow cytometry analysis. […] Results represent average of two independent experiments. All treatments in (A) and (B) on the X axis are in μM.

[6] = test system: latent HIV-1 in Bcl-2-transduced resting CD4+ T cells; assay type: cell-based; details: 24-72 h, average of two donors

Row | SMILES | reversal of latency (GFP) [1] | inhibition of luciferase expression [2] | activation of HIV transcription (GFP) [3] | activation of HIV transcription (GFP) [4] | reactivation of HIV-1 (GFP+ cells) [5] | activation of HIV transcription (GFP) ([3]; listed as I-BET151) | activation of HIV transcription (GFP) ([4]; listed as I-BET151) | reactivation of latent HIV-1 relative to costimulation with αCD3 and αCD28 antibodies [6]
1 | O=C(CCCCCCC(=O)Nc1ccccc1)NO [SAHA, suberoylanilidehydroxamic acid] | resistant to reactivation | – | – | – | – | – | – | –
2 | OC[C@H]1O[C@@H](n2cnc3cc(Cl)c(Cl)cc32)[C@H](O)[C@@H]1O [DRB] | – | more than 80% | – | – | – | – | – | –
3 | Cc1sc2c(c1C)C(c1ccc(Cl)cc1)=N[C@H](CC(=O)OC(C)(C)C)c1nnc(C)n1-2 [(R)-JQ1] | – | – | inactive and not and did not activate the integrated HIV promoter | did not activate the integrated HIV promoter | not | – | – | –
4 | COc1cc2c(cc1-c1c(C)noc1C)ncc1[nH]c(=O)n([C@H](C)c3ccccn3)c12 [I-Bet151, 7-(3,5-dimethylisoxazol-4-yl)-8-methoxy-1-((R)-1-(pyridin-2-yl)ethyl)-1H-imidazo[4,5-c]quinolin-2(3H)-one] | – | – | effectively activated HIV from latency | effectively activated HIV from latency | – | increased GFP expression | increased GFP expression | same activation
5 | COC(=O)C[C@@H]1N=C(c2ccc(Cl)cc2)c2c(sc(C)c2C)-n2c(C)nnc21 [MS417, Methyl 2-((6S)-4-(4-chlorophenyl)-2,3,9-trimethyl-6H-thieno[3,2-f][1,2,4]triazolo[4,3-a][1,4]diazepin-6-yl)acetate] | minor activatory effect | – | effectively activated HIV from latency; also recorded: increased GFP expression | effectively activated HIV from latency; also recorded: increased GFP expression | – | – | – | same activation
